Measured values published in US20230295152A1 (SENDA BIOSCIENCES, INC., priority 2019, published 2023).
pIC50: −log10 of the molar value.

Experiments:
[1] = system: CT26 cells implanted subcutaneously into Balb/c mice; test: CT26 syngeneic colon cancer model, AhR antagonist with PD-L1 antibody; assay type: in vivo; settings: for Cmin: CT26 model, dose 10 mg/kg
[2] = system: CYP1A1 mRNA levels in HT26; test: CYP1A1 Gene Expression Assay, mouse CRC cell line HT26; assay type: cell-based; settings: for pIC50: Mus musculus; for Mouse CYP1A1 % eff: efficacy given with the IC50
Method: Human and mouse colorectal cancer (CRC) cell lines, HT29 and HT26 respectively, American Type Culture Collection (ATCC) are plated in a sterile tissue culture treated 96-well plate (ThermoFisher) at 8.0×10^5 cells per well, and grown overnight at 37° C., 5% CO2 in DMEM complete (Gibco) in order to achieve confluence. After the incubation medium is aspirated off the cell monolayers, tissues are then washed with 200 μL of warmed PBS solution, and subsequently 190 μL of pre-warmed growth medium is added to each well. AhR antagonist of interest are diluted at a 20×concentration in growth medium containing 2% DMSO, and 10 μL of compound solutions are added to respective wells in triplicate. After 1 hr, AHR activating ligand, such as TCDD, kynurenine, ITE (2-(1H-indole-3-ylcarbonyl)-4-thiazolecarboxylic methyl ester), VAF347, BNF (beta-naphthoflavone), FICZ (6-formylindolo(3,2-b) carbazole or other AHR ligands, is added with or without AHR antagonist for 24 hours, after which media will be removed and stored at −80 C for later cytokine analysis. At the end of the incubation, medium is aspirated off the CRC cells, and the cells washed with 100 μL of cold PBS solution. RNA is extracted via the TaqMan™ Gene Expression Cells-to-CT™ Kit (ThermoFisher) according to the manufacturer's protocol. The QuantStudio 6 Flex (Applied Biosciences) is used to analyze mRNA levels of CYP1A1 using GAPDH as the endogenous control. TaqMan™ probe sets for both genes are acquired from ThermoFisher. Samples are run in triplicate and data is analyzed using the QuantStudio software and reported as linear and log 2(ΔΔCT) values. Statistical analysis is performed using a two-tailed t-test comparing CYP1A1 levels in the presence of each individual compound to the vehicle negative control. […] This assay can be used to confirm the inhibitory effect of the compounds prior to testing using an in vivo model.

[3] = CT26 syngeneic colon cancer model, AhR antagonist with PD-L1 antibody; assay type: in vivo; settings: female, Balb/c, mouse, in vivo, po; CT26 model, dose 10 mg/kg
CYP3A4 = biological target: T1, CYP3A4 (Homo sapiens, UniProt P08684); test: CYP Inhibition Assay in human liver microsomes, CYP3A4; assay type: in vitro ADME; settings: pH 7.4
T1 construct: from tissue; host or cells: human liver microsomes (HLM)
T1 sequence (P08684 whole entry): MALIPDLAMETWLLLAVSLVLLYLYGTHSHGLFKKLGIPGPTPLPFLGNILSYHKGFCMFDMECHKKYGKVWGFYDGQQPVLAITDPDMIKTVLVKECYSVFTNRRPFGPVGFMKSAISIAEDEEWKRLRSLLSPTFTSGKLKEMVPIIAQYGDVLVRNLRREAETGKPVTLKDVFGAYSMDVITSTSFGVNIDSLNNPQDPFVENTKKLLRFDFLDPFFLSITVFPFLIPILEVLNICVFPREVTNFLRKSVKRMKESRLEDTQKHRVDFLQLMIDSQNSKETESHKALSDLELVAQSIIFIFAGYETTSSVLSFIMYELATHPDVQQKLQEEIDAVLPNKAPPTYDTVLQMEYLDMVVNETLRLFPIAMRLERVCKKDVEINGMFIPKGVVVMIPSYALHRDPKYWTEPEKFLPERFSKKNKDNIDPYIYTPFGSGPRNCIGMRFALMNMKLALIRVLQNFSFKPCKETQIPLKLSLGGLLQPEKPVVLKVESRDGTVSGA
Method: Stock solutions of test compounds were prepared in DMSO at the concentrations of 10 mM. Stock solution was diluted to 2 mM with acetonitrile. The final concentration of test compounds was 10 μM. For the stock solution preparation, if the positive control could not be well dissolved in the mixture of DMSO and acetonitrile (1:4) at the highest concentration, another mixture of acetonitrile and DMSO, the mixture of acetonitrile and H2O or DMSO will be used to dissolve the compound.
The substrate solutions are stored in a −20° C. freezer and warmed to room temperature prior to use.
Preparation of Phosphate Buffer (100 mmol/L, pH 7.4): To prepare the Solution A, 7.098 g of disodium hydrogen phosphate were weighed out and added into 500 mL of pure water, then sonicated to dissolve the content. To prepare the Solution B, 3.400 g of potassium dihydrogen phosphate were weighed out and added into 250 mL of pure water, then sonicated to dissolve the content. Solution A was placed on a stirrer and slowly Solution B was added into Solution A until the pH reached 7.4. Preparation of 10 mmol/L NADPH Solution: NADPH was dissolved at 8.334 mg/mL in phosphate buffer; the solution was freshly prepared prior to use.
The master solution was prepared according to Table 45. The incubation was carried out in 96 deep well plates. The following volumes were dispensed into each well of the incubation plate: 179 μL of the substrate and HLM mixture in phosphate buffer, 1 μL of the compound working solution, or vehicle (mixture of DMSO and acetonitrile (1:4)). The incubation plate was placed into the water bath and pre-warmed at 37° C. for 15 minutes before the reactions was started by the addition of 20 μL of 10 mmol/L NADPH solution in phosphate buffer. After the addition of NADPH, the incubation plate was incubated at 37° C. for corresponding time. The assay was performed in duplicate.
The reaction was quenched by the addition of 1.5 volume (300 μL) of cold acetonitrile containing 3% formic acid and internal standards (200 nM Labetalol, 200 nM Alprazolam and 200 nM tolbutamide). The plate was centrifuged at 3,220 g for 40 minutes. 100 μL of the supernatant was transferred to a new plate. The supernatant was diluted with 100 μL pure water. The samples were mixed well and analyzed using UPLC/MS/MS.
Data Analysis: The automatic peak integration areas are checked for all the samples. The Analyte Peak Area and Internal Standard Peak Area are exported into excel spreadsheet. The inhibition of each P450 enzyme in human liver microsomes is measured as the percentage decrease in the activity of marker metabolite formation compared to non-inhibited controls (=100% activity).
The percentage of remaining activity was calculated as follows: […]

Row | SMILES | pIC50 [2] | Mouse CYP1A1 % eff [2] [%] | Cmax [3] [µM] | Cmin [1] | inhibition at 10 µM (CYP3A4) [%] | other results
1 | C[C@@H](CO)n1cnc2c(-c3cccc(F)c3)nc(-c3ccc(Cl)cc3)cc2c1=O [Compound 7] |  |  |  |  |  | tumor volume, coadministration with PD-L1 antibody ([1]; FIG. 2, 3 mg/kg p.o. once a day over 14 days with anti-PD-L1 antibody 10 mg/kg IP every 3 days, p=0.0039 (Mann-Whitney)): reduction in tumor volume; tumor weight upon termination of study, coadministration with PD-L1 antibody ([1]; FIG. 3, 3 mg/kg p.o. once a day over 14 days with anti-PD-L1 antibody 10 mg/kg IP every 3 days, p=0.041 (Mann-Whitney)): reduction in tumor weight
2 | CC(C)(O)Cn1cnc2c(-c3cccnc3)nc(-c3ccc(C(F)(F)F)nc3)cc2c1=O [Compound 9] | 8.57 | ~55 | 4.96 | 849 nm |  | tumor volume and weight, combination with PD-L1 compared to PD-L1 alone (overall) ([1]; 10 mg/kg or 1 mg/kg p.o. once a day over 14 days with anti-PD-L1 antibody 10 mg/kg IP every 3 days): decreases tumor volume and weight compared to PD-L1 alone; tumor volume, coadministration with PD-L1 antibody ([1]; FIG. 8, 10 mg/kg p.o. once a day over 14 days with anti-PD-L1 antibody 10 mg/kg IP every 3 days, p=0.0070 (Mann-Whitney)): reduction in tumor volume; tumor weight upon termination of study, coadministration with PD-L1 antibody ([1]; FIG. 9, p.o. once a day over 14 days with anti-PD-L1 antibody 10 mg/kg IP every 3 days, p=0.0114 (Mann-Whitney)): reduction in tumor weight; tumor volume, coadministration with PD-L1 antibody ([1]; FIG. 10, 1 mg/kg p.o. once a day over 14 days with anti-PD-L1 antibody 10 mg/kg IP every 3 days, p=0.0039 (Kruskal Wallis, Dunn's)): reduction in tumor volume; tumor weight upon termination of study, coadministration with PD-L1 antibody ([1]; FIG. 11, p.o. once a day over 14 days with anti-PD-L1 antibody 10 mg/kg IP every 3 days, p=0.0029 (Kruskal Wallis, Dunn's)): reduction in tumor weight
3 | CC(C)(O)Cn1cnc2c(-c3cccnc3)nc(-c3ccc(Cl)cc3)cc2c1=O [Compound 18] |  |  |  |  | 35.2 | 
4 | C[C@H](n1cnc2c(-c3cnn(C)c3)nc(-c3ccc(Cl)cc3)cc2c1=O)C(C)(C)O [Compound 30] | 8.54 | ~56 | 5.88 | 1,725 nm | 12.2 | tumor volume, coadministration with PD-L1 antibody ([1]; FIG. 4, 10 mg/kg p.o. once a day over 14 days with anti-PD-L1 antibody 10 mg/kg IP every 3 days, p=0.039 (Mann-Whitney)): reduction in tumor volume; tumor weight upon termination of study, coadministration with PD-L1 antibody ([1]; FIG. 5, 10 mg/kg p.o. once a day over 14 days with anti-PD-L1 antibody 10 mg/kg IP every 3 days, p=0.067 (Mann-Whitney)): reduction in tumor weight; tumor volume, coadministration with PD-L1 antibody ([1]; FIG. 6, 10 mg/kg p.o. once a day over 14 days with anti-PD-L1 antibody 10 mg/kg IP every 3 days, p=0.350 (Kruskal Wallis, Dunn's)): reduction in tumor volume; tumor weight upon termination of study, coadministration with PD-L1 antibody ([1]; FIG. 7, 10 mg/kg p.o. once a day over 14 days with anti-PD-L1 antibody 10 mg/kg IP every 3 days, p=0.0004 (Kruskal Wallis, Dunn's)): reduction in tumor weight
5 | C[C@@H](CO)n1cnc2c(-c3cccnc3)nc(-c3ccc(C(F)(F)F)cn3)cc2c1=O [Compound 46, (S)-3-(1-hydroxypropan-2-yl)-8-(pyridin-3-yl)-6-(5-(trifluoromethyl)pyridin-2-yl)pyrido[3,4-d]pyrimidin-4(3H)-one] | 7.73 | ~96 | 17.3 | 12,350 nm | 2.26 | tumor volume, coadministration with PD-L1 antibody ([1]; FIG. 12, 10 mg/kg p.o. once a day over 14 days with anti-PD-L1 antibody 10 mg/kg IP every 3 days): reduction in tumor volume; tumor weight upon termination of study, coadministration with PD-L1 antibody ([1]; FIG. 13, 10 mg/kg p.o. once a day over 14 days with anti-PD-L1 antibody 10 mg/kg IP every 3 days): reduction in tumor weight
6 | O=c1c2cc(-c3ccc(Cl)cc3)nc(-c3cccnc3)c2ncn1[C@H]1COC[C@@H]1O [Compound 125, 6-(4-chlorophenyl)-3-((3S,4R)-4-hydroxytetrahydrofuran-3-yl)-8-(pyridin-3-yl)pyrido[3,4-d]pyrimidin-4(3H)-one] |  |  |  |  | 23.8 | 
